By pIC50 is commonly meant the IC50 on a negative log10 scale, so that one unit is a factor of ten. Lower therefore signals a large IC50.

Each structure is given as a SMILES string. pIC50: −log10 of the molar value. *1 amine or outer side, *2 acyl side, *3 side chain or, on linkers, in order; H or OH if unused. Where a SMILES comes first, the peptide text is derived from it. [ ]: non-standard residue; d: D form. The star is where a group is joined. X1 = CC(C)C[C@H](C[C@H](O)[C@H](CC1CCCCC1)N[*:1])C(=O)[*:2]; Boc = CC(C)(C)OC(=O)*

The target in assay [1] is T1, Renin (Homo sapiens, UniProt P00797).
T1 sequence (P00797 whole entry): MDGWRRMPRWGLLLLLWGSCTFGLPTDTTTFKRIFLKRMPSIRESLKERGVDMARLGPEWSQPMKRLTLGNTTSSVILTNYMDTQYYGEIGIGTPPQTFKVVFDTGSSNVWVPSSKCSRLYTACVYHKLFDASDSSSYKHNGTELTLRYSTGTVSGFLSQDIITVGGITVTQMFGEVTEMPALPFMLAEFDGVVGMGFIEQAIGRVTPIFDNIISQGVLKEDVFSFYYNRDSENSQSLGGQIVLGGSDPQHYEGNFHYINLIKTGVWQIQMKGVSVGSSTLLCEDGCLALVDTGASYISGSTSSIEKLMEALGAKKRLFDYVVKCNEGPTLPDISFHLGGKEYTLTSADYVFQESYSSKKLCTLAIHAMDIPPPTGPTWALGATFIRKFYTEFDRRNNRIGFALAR
Put plainly: Compound was tested for its inhibitory activity against human plasma renin. Type of assay: cell-free.

Another assay addresses Renin (Canis familiaris). The assay is described as follows: Compound was tested for its inhibitory activity against dog plasma renin.
Assay [2] relates to Canis familiaris. Put plainly: Decrease in mean arterial pressure in anesthetized, sodium depleted dogs, at 3.7+/0.4 ug/Kg/min infusion rate. In kind it is functional, Canis lupus familiaris, Artery.
The species entered for assay [3] is Canis familiaris. Put plainly: Infusion rate producing half of the maximal decrease in renin dependent blood pressure in dogs. In kind it is functional, Canis lupus familiaris.
Assay [4] is filed under the species Rattus norvegicus. Put plainly: Infusion rate producing half of the maximal decrease in renin dependent blood pressure in rats. Type of assay: functional.
Assay [5] has as its target T2, Renin (Rattus norvegicus, UniProt P08424).
T2 sequence (P08424 whole entry): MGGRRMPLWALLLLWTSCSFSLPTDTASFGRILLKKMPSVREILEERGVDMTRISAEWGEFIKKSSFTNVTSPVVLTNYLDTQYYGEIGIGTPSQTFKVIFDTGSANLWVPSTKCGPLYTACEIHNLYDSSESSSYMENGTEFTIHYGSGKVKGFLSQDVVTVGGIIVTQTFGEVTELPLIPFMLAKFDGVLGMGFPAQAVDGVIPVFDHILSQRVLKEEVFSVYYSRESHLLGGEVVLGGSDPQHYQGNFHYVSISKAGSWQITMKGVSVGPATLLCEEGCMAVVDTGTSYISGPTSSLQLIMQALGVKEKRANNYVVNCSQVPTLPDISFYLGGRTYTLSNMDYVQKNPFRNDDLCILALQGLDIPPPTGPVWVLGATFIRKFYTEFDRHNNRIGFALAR
The assay is described as follows: Compound was tested for its inhibitory activity against Rat plasma renin. In kind it is cell-free.

The species entered for assay [6] is Rattus norvegicus. Put plainly: Infusion rate producing a decrease in MAP of between 30 and 40 mmHg in the rat. Type of assay: functional.

`CC(=O)O.CC(C)C[C@H](C[C@H](O)[C@H](CC1CCCCC1)NC(=O)[C@H](Cc1c[nH]cn1)NC(=O)[C@H](Cc1ccccc1)NC(=O)OC(C)(C)C)C(=O)N[C@@H](CCCCN)C(=O)N[C@@H](Cc1ccccc1)C(=O)O` (Boc-FH[X1]KF-OH): the pIC50 against Renin [1] was 7.70; against Renin (Canis familiaris) it was 10.52; against Renin [5], 8.52. Besides, the MAP in the assay on Canis familiaris [2] was 35 mmHg. Also, the Infusion rate in the assay listed under Canis familiaris [3] was determined as 1.1 µg/min/kg; in the assay listed under Rattus norvegicus [4] it was 9.7 µg/min/kg; in the assay filed under Rattus norvegicus [6], 30 µg/min/kg.

The values above are taken from ChEMBL document CHEMBL1150545, “CP-71,362, an unusually potent inhibitor of rat and dog renin” (Bioorg Med Chem Lett, 1994).
